Data as given in article PMC4474554 (PLoS ONE, 2015).

System: EGFR kinases (all the variants tested)
Assay: In vitro binding assay (ATP beads), all variant EGFR kinases
Details: at a concentration of 1000 μM

binding of exogenous ATP to EGFR kinases: weakly bound
SMILES: Nc1ncnc2c1ncn2[C@@H]1O[C@H](COP(=O)(O)OP(=O)(O)OP(=O)(O)O)[C@@H](O)[C@H]1O [ATP]
